Laboratory results taken from article PMC9265957, “Bioavailability of Rosehip (Rosa canina L.) Infusion Phenolics Prepared by Thermal, Pulsed Electric Field and High Pressure Processing” (Foods, 2022).
Like-named read-outs stand apart in the source and are kept apart here.

Assays:
[1] = set-up: method as in doi:10.1111/jfpp.16096; settings: rosehip infusions by TT, HPP and PEF, depending on the treatment; cited from earlier work
[2] = set-up: method as in PMID 31100382; settings: rats; oral administration; after one hour; cited from earlier work
[3] = tested on: Caco-2 cells; test: Transepithelial transportation of catechin from digests across the Caco-2 monolayer; assay type: in vitro ADME, Human; settings: 4 h; digests diluted 1/5
Description: The in vitro gastrointestinal digestion was simulated regarding the procedures of Ozkan et al. and Sessa et al., with minor modifications. This assay involves two sequential stages: gastric digestion and bile salt/pancreatin digestion. For the gastric digestion, the samples containing 1.3 mg/mL final concentration of pepsin at pH 2 were placed in a water bath (GFL 1092, Burgwedel, Germany) at 37 °C and 100 rpm for a 2 h incubation period. To simulate intestinal digestion, gastric chyme was mixed with 0.175 mg/mL pancreatin and 1.10 mg/mL bile salts at pH 6.5, and then placed in a water bath at 37 °C and 100 rpm for 2 h incubation. […]
The transport trial was carried out based on Wu et al.. […] TEER values of the cells were determined before the experiment, after the last sampling and 24 h after the incubation period. […]
The quantification of phenolic compounds in rosehip infusions was conducted by UPLC based on Ozkan et al., with minor changes. Digests obtained from apical and basolateral sides were analyzed by a Waters Acquity UPLC system (Waters Co., Milford, MA, USA) combined with a diode array detector (DAD). […] Catechin concentration was determined by using its authentic standard. […] The results were expressed as mg catechin per 100 g dw (dry weight) of rosehip. […]

[4] = set-up: method as in earlier work; settings: mice, cited from earlier work
[5] = set-up: method as in PMID 31100382; settings: ex vivo; after one hour; cited from earlier work
[6] = cited from earlier work
[7] = tested on: cellular monolayer; set-up: method as in doi:10.1021/acsomega.8b03499; settings: sweet cherry phenolics; cited from earlier work
[8] = set-up: method as in PMID 24191680; settings: sour cherry fruit and nectar samples, depending on ingredients and processing; cited from earlier work
[9] = set-up: method as in doi:10.1016/j.jff.2018.10.025; settings: rats; after 6 h; cited from earlier work
[10] = set-up: method as in Rodríguez-Roque et al. [11]; settings: fruit juice blends, traditional thermal treatment; ref Rodríguez-Roque et al. [11]; cited from earlier work

O.Oc1cc(O)c2c(c1)O[C@H](c1ccc(O)c(O)c1)[C@@H](O)C2 [catechin, Catechin]
catechin lost after gastrointestinal digestion [1]: 51.8–61.0% | maximum concentration in plasma [2]: 120 ± 3.97 ng/mL | Apical Recovery (%) of catechin [3]: 68–69% | maximum plasma catechin level ([4]; sour mangosteen rind): 1.10 µg/mL | permeation across the intestinal tissue [5]: 12.5 µg

O=C(O[C@@H]1Cc2c(O)cc(O)cc2O[C@@H]1c1ccc(O)c(O)c1)c1cc(O)c(O)c(O)c1 [epicatechin gallate]
amounts in plasma with chocolate food matrix ([6]; five healthy 22-year-old women): reduced | form detected in plasma ([6]; five healthy 22-year-old women): aglycon form

Oc1cc(O)c2c(c1)O[C@H](c1ccc(O)c(O)c1)[C@H](O)C2 [epicatechin]
amounts in plasma with chocolate food matrix ([6]; five healthy 22-year-old women): no alteration | form detected in plasma ([6]; five healthy 22-year-old women): conjugated metabolites | quantity that crossed the cell monolayer [7]: 0.37% | maximum plasma epicatechin concentration ([4]; sour mangosteen peel): 62.03 µg/mL | basolateral side recovery [8]: 1.1–3.8%

O=C(O[C@@H]1Cc2c(O)cc(O)cc2O[C@@H]1c1cc(O)c(O)c(O)c1)c1cc(O)c(O)c(O)c1 [epigallocatechin gallate]
amounts in plasma with chocolate food matrix ([6]; five healthy 22-year-old women): reduced | form detected in plasma ([6]; five healthy 22-year-old women): aglycon form

Oc1cc(O)c2c(c1)O[C@H](c1cc(O)c(O)c(O)c1)[C@H](O)C2 [epigallocatechin]
amounts in plasma with chocolate food matrix ([6]; in vivo): no alteration | form detected in plasma ([6]; in vivo): conjugated metabolites

Oc1cc(O)c2c(c1)OC(c1ccc(O)c(O)c1)C(O)C2 (stereo not drawn) [free catechin]
bioavailability (plasma catechin values) [9]: 241 nM·h

O=C1O[C@H]([C@@H](O)CO)C(O)=C1O [vitamin C]
bioaccessibility [10]: 11.1%
